According to patent US20170087562A1, “METHOD FOR DETERMINING TREATMENT RESPONSE OF CELLS” (NATIONAL CHENG KUNG UNIVERSITY, priority 2015, published 2017):

Experiments:
[1] = tested on: lung cancer cells AS2; assay: Traveling-wave dielectrophoresis moving speed of cells after Taxol; assay type: cell-based; conditions: 24 hours after treatment
Excerpt: The principle of the traveling-wave dielectrophoresis is similar with the electrorotation. The test cells can be pushed away by the electrodes when applying a negative electrophoresis force (nDEP) through two set of parallel electrode 13 and 14, so that the influence on the moving condition resulting from the friction between the test cells and chip surface can be reduced. The two set of parallel electrode 13 and 14 individually include several electrodes having a width ranged from 0.1 to 1000 microns, preferably 0.5 to 100 microns, for example 1 micron, 20 microns, 40 microns, 50 microns, or 60 microns; the width of the intervals ranged from 0.1 to 1000 microns, preferably 0.5 to 100 microns, for example 1 micron, 20 microns, 40 microns, 50 microns, or 60 microns. Moreover, in this uneven electric field, the electric signal has a periodic variation in value and direction (such as a sine wave), for example, 360/N of sine wave signal are subsequently applied to the parallel electrodes, wherein N is preferably equal to 4, so that the sine wave of the electrodes have intervals of 90 degrees from each other, but N is not limited thereto. The wave signal of each electrode continuously changes the phase thereof by time to provide the source of the moving force for traveling-wave electrophoresis. […]

[2] = tested on: lung cancer cells AS2; assay: Corresponding cell analysis after Taxol (cell death, proliferation inhibition/cells kill); assay type: cell-based
Excerpt: The moving speed of the cell can be obtained by analyzing the moving distance perpendicular to the electrode at different time points. […]. […] The treatment response includes proliferation inhibition/cells kill which are the important indicators for determining whether the chemotherapy is effective on clinical. Therefore, the conclusion of the treatment response of cells to the treatment method can be obtained fast by using electrorotation, and the treatment effect of the clinical treatment can be estimated with high reliability, so that the analysis period indeed can be substantially shorten (24 hrs v.s. 48 hrs).

Which results are given for CC(=O)O[C@H]1C(=O)[C@@]2(C)[C@H]([C@H](OC(=O)c3ccccc3)[C@]3(O)C[C@H](OC(=O)[C@H](O)[C@@H](NC(=O)c4ccccc4)c4ccccc4)C(C)=C1C3(C)C)[C@]1(OC(C)=O)CO[C@@H]1C[C@@H]2O [Taxol]?
moving speed versus placebo (only DMSO) [1]: much slower; proliferation inhibition/cells kill ([2]; 24 hours): obvious; cell death ([2]; 48 hours): obvious; proliferation inhibition/cells kill ([2]; 48 hours): obvious
